Source: US5178662A, “Benzaldehyde acetal compounds, preparation process thereof, and herbicidal compositions containing the same as active ingredients” (Mitsui Toatsu Chemicals, Inc., priority 1990, dated 1993)

Tests used:
[1] = test system: ALS (acetolactate syntase) from barnyardgrass seedlings; assay: ALS (acetolactate syntase) inhibition test, barnyardgrass enzyme; assay type: biochemical; settings: 10,000 ppm (0.5 μg/0.5 ml) of compound; 1 hour at 30° C.; absorbance at 525 nm
Method: (§1) To determine the selectivity in enzyme level between crops and weeds, an ALS inhibition test was conducted using pea as a typical broadleaf crop and barnyardgrass as a representative gramineous weeds.
(§2) After seeds of pea and barnyardgrass were allowed to germinate at 25° C. for 8-14 days in a dark place, partially-purified suspensions (Suspensions A) of acetolactate syntase were separately obtained from the seedlings in accordance with the procedures described in the literature, Plant Physiology, 75, 827-831. In a test tube, 0.5 mg of one of test compounds was weighed, followed by the addition of 0.15 ml of a 20 mM K2 HPO4 solution and 0.25 ml of a reaction substrate medium which consisted of 40 mM of K2 HPO4, 40 mM of sodium pyruvate, 1 mM of TPP, 1 mM of MgCl2 and 20 μM of FAD so that 0.4 ml of a reaction solution (Solution B) was prepared. Added to 0.4 ml of Solution B was 0.1 ml of Suspension A. After the resultant mixture was shaken for 1 hour in a thermostat water bath controlled at 30° C., 50 μl of 6N sulfuric acid were added to terminate the reaction.
(§3) Next, the test tube with the reaction-terminated liquid mixture contained therein was transferred into a thermostat water bath controlled at 60° C. and was heated for 15 minutes. Thereafter, 0.5 ml of a 0.5% creatine solution and 0.5 ml of a 5% alkaline α-naphthol solution were added, and the resultant mixture was maintained at 60° C. for 15 minutes. As a result, the test solution developed a pink-to-red color. After the above operation, the absorbance of the test solution at 525 nm was measured by a spectrophotometer (Absorbance 1 of Test Compound).
(§4) Further, the absorbance (Absorbance 2 of Blank) of a solution obtained by subjecting a portion of Solution B to the above procedures without addition of any test compound and the absorbance (Absorbance 3 of sulfuric acid) of another solution obtained by subjecting another portion of Solution B to the above procedures which using 50 μl of 6N sulfuric acid as a test compound were also measured.

[2] = test system: ALS (acetolactate syntase) from pea seedlings; assay: ALS (acetolactate syntase) inhibition test, pea enzyme; assay type: biochemical; settings: 10,000 ppm (0.5 μg/0.5 ml) of compound; 1 hour at 30° C.; absorbance at 525 nm
Method: as §1, §2, §3, §4

[3] = test system: Amaranth (Amaranthus viridis); assay: Upland soil application test, amaranth; assay type: in vivo; settings: 1200 h, soil application one day after seeding, 50 g ai/a, wettable powder, fresh weight on 50th day after spray, read-out: Herbicidal effects Amaranth (Amaranthus viridis)
Method: (§5) Resin-made 1/1000-are pots were filled with the soil of an upland field. After they were fertilized, cotton and soybean were seeded and 3 cm soil covering was applied. In addition, amaranth, common lambs-quarters, barnyardgrass, green foxtail, large crabgrass and johnsongrass were seeded and 1 cm soil covering was applied. One day later, a wettable powder prepared from a predetermined amount of each test compound in a similar manner to the procedures described in Formulation Example 1 was diluted with water and then sprayed evenly at an application rate equal to 10 l per are onto the surface of the soil by means of a pressure-operated sprayer. The weeds and crops were allowed to grow in a green house and influence to them were observed on the 50th day after the spray. The degree of damages of each test plant and the degree of injury to each crop were determined by measuring fresh weight in each group and indicated by % calculated according to the following formula. [formula]

common lambsquarters [4] = assay: Upland soil application test, common lambsquarters; assay type: in vivo; settings: Chenopodium album, 1200 h; soil application one day after seeding, 50 g ai/a, wettable powder, fresh weight on 50th day after spray; read-out: Herbicidal effects Common lambquarters
Method: as §5

[5] = test system: Barnyardgrass (Echinochloa crusgalli); assay: Upland soil application test, barnyardgrass; assay type: in vivo; settings: Echinochloa crus-galli, 1200 h; soil application one day after seeding, 50 g ai/a, wettable powder, fresh weight on 50th day after spray; read-out: Herbicidal effects Barnyardgrass (Echinochloa crusgalli)
Method: as §5

[6] = test system: Foxtail (Setaria viridis); assay: Upland soil application test, green foxtail; assay type: in vivo; settings: 1200 h, soil application one day after seeding, 50 g ai/a, wettable powder, fresh weight on 50th day after spray, read-out: Herbicidal effects Foxtail (Setaria viridis)
Method: as §5

[7] = test system: Crabgrass (Digitaria adscendens); assay: Upland soil application test, large crabgrass; assay type: in vivo; settings: 1200 h, soil application one day after seeding, 50 g ai/a, wettable powder, fresh weight on 50th day after spray, read-out: Herbicidal effects Crabgrass (Digitaria adscendens)
Method: as §5

Johnsongrass [8] = assay: Upland soil application test, johnsongrass; assay type: in vivo; settings: Sorghum halepense, 1200 h; soil application one day after seeding, 50 g ai/a, wettable powder, fresh weight on 50th day after spray; read-out: Herbicidal effects Johnsongrass
Method: as §5

Soybean (Glycine max) [9] = assay: Upland soil application test, crop injury soybean; assay type: in vivo; settings: soil application one day after seeding, 50 g ai/a, wettable powder, fresh weight on 50th day after spray
Method: as §5

[10] = test system: Cotton (Gossypium indicum); assay: Upland soil application test, crop injury cotton; assay type: in vivo; settings: soil application one day after seeding, 50 g ai/a, wettable powder, fresh weight on 50th day after spray
Method: as §5

[11] = test system: Amaranth (Amaranthus viridis); assay: Upland foliar application test, amaranth; assay type: in vivo; settings: 960 h, foliar application at stage of 2-3 leaves, 50 g ai/a, emulsion, 40th day after spray, read-out: Herbicidal effects Amaranth (Amaranthus viridis)
Method: as §5
(§6) Resin-made 1/1000-are pots were filled with the soil of an upland field. After they were fertilized, cotton and soybean were seeded and 3 cm soil covering was applied. Five days later, amaranth, common lambsquarters, barnyardgrass, green foxtail, large crabgrass and johnsongrass were seeded and 1 cm soil covering was applied. They were allowed to grow in a green house. When each plant grew to the stage of 2-3 leaves, an emulsion formulated from a predetermined amount of each test compound in a similar manner to the procedures described in Formulation Example 11 was diluted with water and then sprayed at a predetermined application rate by means of a pressure-operated sprayer. The application rate was controlled at 5 l per are. Influence to the crops and weeds were observed on the 40th day after the spray of the herbicides. The results are shown in Table 4 in which the degree of damages of each test plant and the degree of injury to each crop are shown in a similar manner to Test 2.

common lambsquarters [12] = assay: Upland foliar application test, common lambsquarters; assay type: in vivo; settings: Chenopodium album, 960 h; foliar application at stage of 2-3 leaves, 50 g ai/a, emulsion, 40th day after spray; read-out: Herbicidal effects Common lambquarters
Method: as §6

[13] = test system: Barnyardgrass (Echinochloa crusgalli); assay: Upland foliar application test, barnyardgrass; assay type: in vivo; settings: Echinochloa crus-galli, 960 h; foliar application at stage of 2-3 leaves, 50 g ai/a, emulsion, 40th day after spray; read-out: Herbicidal effects Barnyardgrass (Echinochloa crusgalli)
Method: as §6

[14] = test system: Foxtail (Setaria viridis); assay: Upland foliar application test, green foxtail; assay type: in vivo; settings: 960 h, foliar application at stage of 2-3 leaves, 50 g ai/a, emulsion, 40th day after spray, read-out: Herbicidal effects Foxtail (Setaria viridis)
Method: as §5, §6

[15] = test system: Crabgrass (Digitaria adscendens); assay: Upland foliar application test, large crabgrass; assay type: in vivo; settings: 960 h, foliar application at stage of 2-3 leaves, 50 g ai/a, emulsion, 40th day after spray, read-out: Herbicidal effects Crabgrass (Digitaria adscendens)
Method: as §5, §6

Johnsongrass [16] = assay: Upland foliar application test, johnsongrass; assay type: in vivo; settings: Sorghum halepense, 960 h; foliar application at stage of 2-3 leaves, 50 g ai/a, emulsion, 40th day after spray; read-out: Herbicidal effects Johnsongrass
Method: as §6

Soybean (Glycine max) [17] = assay: Upland foliar application test, crop injury soybean; assay type: in vivo; settings: foliar application at stage of 2-3 leaves, 50 g ai/a, emulsion, 40th day after spray
Method: as §6

[18] = test system: Cotton (Gossypium indicum); assay: Upland foliar application test, crop injury cotton; assay type: in vivo; settings: foliar application at stage of 2-3 leaves, 50 g ai/a, emulsion, 40th day after spray
Method: as §5, §6

[19] = test system: johnsongrass emerging from rhizome; assay: Application test on johnsongrass emerging from rhizome; assay type: in vivo; settings: foliar application at stage of 4-5 leaves, application rate of active ingredient 20 (unit not given), emulsion, 50th day after spray
Method: as §5
Resin-made 1/1000-are pots were filled with the soil of an upland field. After they were fertilized, rhizome of johnsongrass were transplanted to the pots and 3 cm soil covering was applied. They were allowed to grow in a green house. When each johnsongrass grew to the stage of 4-5 leaves, an emulsion formulated from a predetermined amount of each test compound in a similar manner to the procedures described in Formulation Example 11 was diluted with water and then sprayed at a predetermined application rate by means of a pressure-operated sprayer. The application rate was controlled at 5 l per are. The effect of each compound against the johnsongrass emerging from its rhizome was observed on the 50th day after the spray of the herbicides. The results are shown in Table 5 in which the herbicidal effect against johnsongrass is shown in a similar manner to Test 2.

SMILES	Enzymoreaction inhibition rate (%) Barnyardgrass [1] [%]	Enzymoreaction inhibition rate (%) Pea [2] [%]	pest or weed control at 5000 g/ha [3] [%]	pest or weed control at 5000 g/ha (common lambsquarters [4]) [%]	pest or weed control at 5000 g/ha [5] [%]	pest or weed control at 5000 g/ha [6] [%]	pest or weed control at 5000 g/ha [7] [%]	pest or weed control at 5000 g/ha (Johnsongrass [8]) [%]	Crop injury Soybean (Glycine max) (Soybean (Glycine max) [9]) [%]	Crop injury Cotton (Gossypium indicum) [10] [%]	pest or weed control at 5000 g/ha [11] [%]	pest or weed control at 5000 g/ha (common lambsquarters [12]) [%]	pest or weed control at 5000 g/ha [13] [%]	pest or weed control at 5000 g/ha [14] [%]	pest or weed control at 5000 g/ha [15] [%]	pest or weed control at 5000 g/ha (Johnsongrass [16]) [%]	Crop injury Soybean (Glycine max) (Soybean (Glycine max) [17]) [%]	Crop injury Cotton (Gossypium indicum) [18] [%]	Herbicidal effect against johnsongrass emerging from rhizome [19] [%]
CCCCCCCOC(OCCCCCCC)c1ccccc1Oc1nc(OC)cc(OC)n1 [Compound No. 6]	100	0	95	90	95	100	85	100	0	0	95	90	95	95	90	100	0	0	85
COc1cc(OC)nc(Oc2ccccc2C(OC(C)C)OC(C)C)n1 [Compound No. 2]	100	0	80	85	80	85	80	100	0	0	100	80	80	100	85	100	0	0	95
CCCCCCCCOC(OCCCCCCCC)c1ccccc1Oc1nc(OC)cc(OC)n1 [Compound No. 7, 2-(4,6-dimethoxypyrimidin-2-yloxy)benzaldehyde di-n-octylacetal]	100	0	80	85	85	90	80	100	0	0	90	85	95	90	90	100	0	0	80
CCCCCCOC(OCCCCCC)c1ccccc1Oc1nc(OC)cc(OC)n1 [Compound No. 5, 2-(4,6-dimethoxypyrimidin-2-yloxy)benzaldehyde di-n-hexylacetal]	100	0	100	100	100	100	100	100	0	0	100	100	100	100	100	100	0	0	100
CCCCCOC(OCCCCC)c1ccccc1Oc1nc(OC)cc(OC)n1 [Compound No. 4]	100	0	100	100	100	100	100	100	0	0	100	100	100	100	100	100	0	0	100
